Consider one compound from patent publication US9150523B2, “Piperazine derivatives, methods for preparing same, and uses thereof in the treatment of insulin resistance” (METABOLYS, priority 2011, dated 2015).

The test system of the assay is db/db mouse. Briefly: Antidiabetic activity in db/db mouse (drop in glycaemia after oral administration). Particulars: 8 weeks old, 200 mg/kg per os. Format: in vivo. Here is the method: The antidiabetic activity of the compound of formula (I) orally on a type 2 diabetes animal model, the db/db mouse, was tested. Diabetic mice are used at the age of 8 weeks; they then have very high hyperglycaemia. The animals are stabilised at a minimum for one week after reception and up to the day of experimentation in an animal house at a temperature regulated at 21°-22° C. and subjected to a fixed cycle of light (from 7 a.m. to 7 p.m.) and darkness (from 7 p.m. to 7 a.m.). Their food consisted of a maintenance regime; water and food were supplied “ad libitum”. The mice are treated orally with the product to be tested (200 mg/kg per os) in suspension in a mixture of water and methyl cellulose or the vehicle (mixture of water and methyl cellulose) in the morning of the day of the experimentation. Just before the administration of the product and one and two hours after the administration of the product, a blood sample (one drop of blood) is taken following a small incision in the tail for determining glycaemia. This glycaemia is measured by means of a glucometer (Lifescan OneTouch Ultra, LifeScan, Johnson-Johnson Company) and OneTouch Ultra glycaemia measurement strips.

On to `COc1ccccc1N1CCN(CCOc2ccc(CCCCC(=O)O)cc2)CC1.Cl` [Compound 1], for which, under “1 hour after administration”, the “Drop in glycaemia (in % of the initial value) After 1 hour” value is on record as 34%. Moreover, the “Drop in glycaemia (in % of the initial value) After 2 hours” value (2 hours after administration) was found to be 44%.
